Counter-ions that a name gives are not always drawn.
What was measured:
[1] = tested on: Human Prostate cancer cells, HTB81; assay: VEGF secretion, VEGF Elisa Assay; type: cell-based; conditions: 72 hrs treatment
Method: The compounds 23a(5′-R) and 23a(5′-S) are potent in inhibition of secretion of Vascular Endothelial Growth Factor (VEGF) from Human Prostate cancer cells, HTB81. VEGF is recognized as angiogenesis marker since this molecule is crucial for migration and growth of endothelial cells and microvessel formation in vivo. […] The compounds were applied just after plating for 72 hrs. After that, the medium was collected and the level of VEGF was measured using VEGF Elisa Assay (R & D Systems) and expressed as pg of VEGF per ml of the medium.

[2] = tested on: Human Prostate cancer cells, HTB81; assay: IL-8 secretion, IL-8 Elisa Assay; type: cell-based; conditions: concentrations indicated in FIG. 12
Description: The compound 23a(5′-R) and 23a(5′-S) indicate an inhibitory effect on secretion of Interleukin-8 (IL-8) from human prostate cancer cells, HTB81. IL-8 belongs to the class of chemo-attractant chemokines (type alpha), which are involved in inflammation processes due to attraction of neutrophils. Chemokines, in general, are known to be produced by various types of cancer. It is proven in several studies that inhibition of chemokine production by cancer cells is beneficial for the host. […] The medium collected from the culture was analyzed for IL-8 level using IL-8 Elisa Assay from R&D Systems.

activated human T cells = assay: Analysis of cytokine mRNA (RT-PCR, Southern blot) in PMA-ION activated human T cells; type: cell-based; conditions: experiment corresponding to FIG. 18; FIG. 26
[3] = tested on: BALB/c and C57BL/6 lymph node CD4+ T cells; assay: Generation of murine Th1 cells, IL-4 and IFNγ ELISA after restimulation; type: cell-based, mouse; conditions: murine CD4+ cells induced with IL-2, IFN-γ, IL-12; BALB/c and C57BL/6; versus without compound
B10.PL (H-2u) mice = assay: Murine EAE model of multiple sclerosis, prophylactic treatment; type: in vivo, mouse; conditions: 0.1 mg/kg IP daily for 10d before induction of disease
PHA stimulated T-cells = assay: Type 1 and Type 2 cytokines in PHA stimulated T-cells; type: cell-based, human; conditions: FIG. 24

For `C[C@@H](O)[C@H]1O[C@@H](n2cc(C#N)c3c(N)ncnc32)[C@H](O)[C@@H]1O` [23a(5′-R), 4-Amino-5-cyano-7-(5(R)-C-methyl-β-D-ribofuranosyl)pyrrolo[2,3-d]pyrimidine], the “secretion of VEGF” value [1] was “inhibit secretion of VEGF in a dose-dependent manner” and the “secretion of IL-8” value [2] was “inhibit secretion of IL-8 in a dose-dependent manner”.

With `C[C@H](O)[C@H]1O[C@@H](n2cc(C#N)c3c(N)ncnc32)[C@H](O)[C@@H]1O` [23a(5′-S), 4-Amino-5-cyano-7-(5(S)-C-methyl-β-D-ribofuranosyl)pyrrolo[2,3-d]pyrimidine] the “secretion of VEGF” value [1] was “inhibit secretion of VEGF in a dose-dependent manner” and the “secretion of IL-8” value [2] was “inhibit secretion of IL-8 in a dose-dependent manner”.

In the case of `Cl.N=C(N)c1cn([C@@H]2O[C@H](CO)[C@@H](O)[C@H]2O)c2nc[nH]c(=O)c12` [ICN 17739, 7-(β-D-ribofuranosyl)pyrrolo[2,3-d]-4-pyrimidone-5-carboxamidine Hydrochloride], the “anti-inflammatory and anti-proliferative responses (RNA expression)” value (activated human T cells) was “induction of anti-inflammatory and anti-proliferative responses”.

For `N=C(N)c1cn([C@@H]2O[C@H](CO)[C@H](O)C2O)c2nc[nH]c(=O)c12` (stereo partly drawn) [ICN 17739, 7-(β-D-ribofuranosyl)pyrrolo[2,3-d]-4-pyrimidone-5-carboxamidine Hydrochloride], the “IFN-γ production of induced Th1 cells” value [3] was “significantly decreased”, the “IL-4 production of induced Th1 cells” value [3] was “significantly increased” and the “MBP-specific Th2 cytokine producing T-cells” value (B10.PL (H-2u) mice) was “induces MBP-specific Th2 cytokine producing T-cells”. The “onset of murine EAE” value (B10.PL (H-2u) mice) was “clearly delayed onset”, the “Type 1 cytokines” value (PHA stimulated T-cells) was “significant decrease” and the “production of Type 2 cytokines” value (PHA stimulated T-cells) was “significant increase”.

Reference: patent US6831069B2, “Pyrrolo[2,3-d]pyrimidine nucleoside analogs” (priority 1999, dated 2004)
